The values below come from US20080311037A1, “Compounds which bind PSMA and uses thereof” (priority 2005, published 2008).

In test [1] the target is T1, PSMA (Homo sapiens, UniProt Q04609). The experiment in a line: Inhibition of 3H-ZJ24 binding to cell membranes. Details: host or cells: PSMA positive membrane preparations. The method, then:
(§1) Described herein are new compounds, which can activate RNase L in PSMA expressing cells. 2-5A was targeted for delivery to PSMA by linking it with a ligand to PSMA. We modified ZJ24, a low molecular weight ligand for PSMA, with 2-5A through a 4-(N-maleimidomethyl)cyclohexane-1-amidate linkage to generate RBI 1033. The inhibitory activity of RBI 1033 to the folate hydrolase activity of PSMA was measured. The PSMA positive membrane preparations were incubated with different concentrations of ZJ24, RBI 1033 and RBI 1032 (2-5A with linker only) together with the substrate methotrexate diglutamate (MTXGlu2) for 1 h. The amount of methotrexate and MTXGlu2 were then determined by HPLC. […] Binding studies were performed by incubating membranes with different concentrations of drugs in the presence of 12 nM of ^3H-ZJ24 for 30 min. […] These studies indicate that RBI 1033 has excellent binding properties to PSMA, which can enable it to serve as a vector for imaging or therapy.
Target sequence in this assay (Q04609 whole entry): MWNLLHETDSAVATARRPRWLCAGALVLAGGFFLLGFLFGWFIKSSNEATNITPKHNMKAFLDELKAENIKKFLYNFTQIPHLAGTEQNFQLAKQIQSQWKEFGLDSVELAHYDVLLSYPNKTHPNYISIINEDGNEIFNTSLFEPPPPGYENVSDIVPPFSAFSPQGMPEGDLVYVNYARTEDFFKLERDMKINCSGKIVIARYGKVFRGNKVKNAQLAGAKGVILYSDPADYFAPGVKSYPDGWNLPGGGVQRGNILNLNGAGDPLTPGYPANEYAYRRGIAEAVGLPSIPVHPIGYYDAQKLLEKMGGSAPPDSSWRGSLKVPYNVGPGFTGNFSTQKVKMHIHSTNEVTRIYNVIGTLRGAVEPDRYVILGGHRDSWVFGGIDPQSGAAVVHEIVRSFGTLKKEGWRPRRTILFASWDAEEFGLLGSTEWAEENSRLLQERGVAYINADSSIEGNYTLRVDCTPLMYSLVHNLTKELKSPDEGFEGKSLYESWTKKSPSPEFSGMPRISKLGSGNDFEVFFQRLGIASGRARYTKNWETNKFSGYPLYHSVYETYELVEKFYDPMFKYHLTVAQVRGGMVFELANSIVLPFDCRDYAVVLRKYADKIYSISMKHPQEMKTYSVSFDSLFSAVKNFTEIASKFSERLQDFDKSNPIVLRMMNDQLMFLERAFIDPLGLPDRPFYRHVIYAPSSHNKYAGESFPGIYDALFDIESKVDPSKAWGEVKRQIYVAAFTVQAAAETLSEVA

For test [2], the target named is T1, PSMA. The experiment in a line: Inhibition of folate hydrolase activity of PSMA, PSMA positive membrane preparations, substrate MTXGlu2, HPLC. More on the design: host or cells: PSMA positive membrane preparations. In kind it is biochemical. The method, then: as §1
Target sequence in this assay (Q04609 whole entry): as above
Test [3] addresses T2, active dimeric form of soluble recombinant hPSMA (Homo sapiens, UniProt Q04609).
T2 construct: Recombinant protein of the extracellular domain of PSMA can also exist in readily inter-convertible dimer-monomer forms
Kind of test: Competition binding assay with 3H-ZJ24 on recombinant PSMA. The following applies: 0.5 μg recombinant PSMA, 12 nM 3H-ZJ24, 30 min, 37° C. The method, then: Binding and activity of the disclosed 2-5A ligand towards the active dimeric form of soluble recombinant hPSMA was compared with methylated parent ligand Cys-C(O)-Glu ZJ24. The binding assay examines the ability of a novel compound to compete for binding with radio-labeled ZJ24. Different final concentrations of the inhibitor can be incubated in the presence of ZJ24 and the concentration required to inhibit 50% of binding is determined (the EC50). Briefly, 0.5 μg of recombinant PSMA was incubated with the ligand to be tested at different concentrations and 12 nM of ^3H-ZJ24 in a total volume of 100 μL for 30 min at 37° C. The mixture was centrifuged through a 50 kDa cut-off membrane. Finally, 4 mL of biodegradable counting cocktail Bio-Safe II was added, and radioactivity was counted.

In test [4] the target is T1, PSMA. Kind of test: PSMA activity assay, hydrolysis of polyglutamate substrate MTXGlu2. In kind it is biochemical. Details: Recombinant protein of the extracellular domain of PSMA can also exist in readily inter-convertible dimer-monomer forms. The following applies: 5 ng recombinant PSMA, MTXGlu2 5 nMol, 37° C, 1 h; read-out: EC50 for inhibition of PSMA activity. The protocol:
The activity assay determines the ability of hPSMA to cleave/hydrolyze a polyglutamte substrate under the presence of a ligand at different concentrations. Briefly, recombinant PSMA (5 ng) was incubated with ZJ24 or disclosed 2-5A ligand. After 30 min the polyglutamate substrate MTXGlu2 (5 nMol) was added and the mixture was incubated at 37° C. for 1 h. The reaction was stopped by the addition of 100 μL of 50 mM Na2HPO4. The amount of MTX formed was analyzed using a Thermo Hypersil PRISM RP column (50×4.6 mm, flow rate 1.0 mL/min) at 313 nm.
Target sequence in this assay (Q04609 44-750 limits assumed): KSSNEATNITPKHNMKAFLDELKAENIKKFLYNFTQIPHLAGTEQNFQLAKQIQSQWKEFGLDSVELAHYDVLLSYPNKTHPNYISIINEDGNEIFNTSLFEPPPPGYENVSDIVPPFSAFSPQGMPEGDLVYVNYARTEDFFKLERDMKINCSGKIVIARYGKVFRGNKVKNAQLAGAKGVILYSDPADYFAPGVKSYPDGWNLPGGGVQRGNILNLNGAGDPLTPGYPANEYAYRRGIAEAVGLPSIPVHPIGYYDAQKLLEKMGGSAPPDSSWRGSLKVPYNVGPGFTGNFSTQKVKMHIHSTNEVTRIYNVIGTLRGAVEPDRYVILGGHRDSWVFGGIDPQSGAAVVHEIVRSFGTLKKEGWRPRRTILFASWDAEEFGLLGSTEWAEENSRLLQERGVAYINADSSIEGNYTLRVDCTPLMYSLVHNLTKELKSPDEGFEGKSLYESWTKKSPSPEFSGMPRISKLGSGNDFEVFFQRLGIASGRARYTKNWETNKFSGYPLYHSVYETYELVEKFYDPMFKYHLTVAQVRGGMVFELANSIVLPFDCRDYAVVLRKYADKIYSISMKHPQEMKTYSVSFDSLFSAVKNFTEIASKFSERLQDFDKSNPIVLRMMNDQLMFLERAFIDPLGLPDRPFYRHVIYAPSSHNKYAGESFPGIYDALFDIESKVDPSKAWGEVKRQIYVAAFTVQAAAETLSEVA

Test [5] deals with T1, PSMA. Kind of test: Binding of 3H-ZJ24 to recombinant hPSMA, Scatchard analysis. Details: Recombinant protein of the extracellular domain of PSMA can also exist in readily inter-convertible dimer-monomer forms. Particulars: 50 mM Tris buffer pH 7.5, 30 min, 37° C. The method, then:
FIG. 2 is a graph showing binding to the monomeric and active dimeric form of soluble recombinant hPSMA of a ^3H (tritium) radiolabled (ZJ24), ^3H—(S)-2-[3-((R)-1-carboxy-2-methyl-sulfanyl-ethyl)-ureido]-pentanedioic acid or [^3H]MeCys-C(O)-Glu Parent PMSA ligand (6) maintains its specificity for PSMA by binding to recombinant hPSMA with a Kd of 2 nM based on Scatchard analysis. The binding assay was performed in 50 mM Tris buffer (pH 7.5). Briefly, 0.5 μg of recombinant PSMA was incubated with ^3H-ZJ24 in a total volume of 100 μL for 30 min at 37° C. The mixture was centrifuged through a 50K cutoff membrane. Then 50 μL of filtrate was added to 4 mL of cocktail and the radioactivity measured. […] After 60 min less than 10% of the compound found in kidney and plasma was degraded.
Target sequence in this assay (Q04609 44-750 limits assumed): as above

T2 sequence (Q04609 44-750 limits assumed): as above

Broadly, the IC50 is the concentration that gives 50% inhibition. By EC50 is commonly meant the midpoint of the concentration-response curve. For “(S)-2-[3-((R)-1-carboxy-2-methyl-sulfanyl-ethyl)-ureido]-pentanedioic acid [ZJ24]”, the IC50 in test [1] (12 nM 3H-ZJ24, 30 min, read-out: IC50 for inhibition of binding of 3H-ZJ24 to the cell membrane) stood at 15.3 nM; in test [2] (PSMA positive membrane preparations, MTXGlu2 substrate, 1 h, read-out: IC50 as folate hydrolase inhibitor) it was 53.9 nM. Further, the EC50 in test [3] stood at 15.3 nM; in test [4], 56.7 nM.

Regarding `Nc1ncnc2c1ncn2[C@@H]1O[C@H](COP(O)(O)=S)[C@@H](O)[C@H]1OP(O)(=S)OC[C@H]1O[C@@H](n2cnc3c(N)ncnc32)[C@H](OP(O)(=S)OC[C@H]2O[C@@H](n3cnc4c(N)ncnc43)[C@H](OP(O)(=S)OCCCNC(=O)C3CCC(CN4C(=O)CC(SC[C@H](NC(=O)N[C@@H](CCC(=O)O)C(=O)O)C(=O)O)C4=O)CC3)[C@@H]2O)[C@@H]1O` (stereo partly shown) [RBI 1033], the “times higher affinity to PSMA than ZJ24” value in test [1] (compared to ZJ24) is reported as “more than 10 times”. The “times more potent than ZJ24 as folate hydrolase inhibitor” value in test [2] (compared to ZJ24) was “more than 10 times”.

What is called Kd is the free concentration of one partner at which half of the binding sites on the other are occupied at equilibrium, for simple one-to-one binding. `O=C(O)CCC(NC(=O)NC(CS)C(=O)O)C(=O)O` (stereo not shown) [Parent PMSA ligand (6)]: the Kd in test [5] is 2 nM.
